Measured values as given in paper PMC2909000 (Current topics in medicinal chemistry, 2009).
Like-named read-outs stand apart in the source and are kept apart here.

What was measured:
human liver cathepsin L = conditions: cited from earlier work
Ebola virus = conditions: cited from earlier work
SARS-CoV = conditions: cited from earlier work
cathepsin B = conditions: relative to cathepsin L
zebrafish = conditions: cited from earlier work
[1] = system: two component NS2B-NS3 Proteinase of West Nile Virus; conditions: another MLSCN Center; ref xxix, xxx; cited from earlier work
Leishmania major = conditions: read-out: IC50, Leishmania major; cellular model of infection; ref xl; cited from earlier work
Plasmodium falciparum = conditions: read-out: IC50, Plasmodium falciparum; cellular model of infection; ref xl; cited from earlier work
[2] = system: bovine aortic endothelial cells; conditions: ref xl; cited from earlier work
cathepsin L = cathepsin L (Homo sapiens, UniProt P07711); type: biochemical; conditions: stoichiometric amounts of enzyme
[3] = reaction of 15a in the presence of cysteine, LC/MS monitoring for products; type: physicochemical

Chain of cathepsin L (P07711 114-333): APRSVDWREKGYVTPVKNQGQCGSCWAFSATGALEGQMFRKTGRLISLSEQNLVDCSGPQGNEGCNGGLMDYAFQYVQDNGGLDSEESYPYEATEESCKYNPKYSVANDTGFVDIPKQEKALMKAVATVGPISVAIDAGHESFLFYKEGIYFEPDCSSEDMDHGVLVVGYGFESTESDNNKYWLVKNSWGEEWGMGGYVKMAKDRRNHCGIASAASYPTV

In the case of `CC(C)(C)OC(=O)N[C@@H](Cc1c[nH]c2ccccc12)C(=O)NNC(=O)OCC(=O)N1CCCc2ccccc21` [Compound 19], the IC50 (human liver cathepsin L; read-out: IC50 against cathepsin L with a 4 hour pre-incubation, 4 hour pre-incubation, ref xxx) is given as 0.4 nM, the IC50 (human liver cathepsin L; read-out: IC50 against cathepsin L, no pre-incubation, ref xxx) is given as 7 nM and the “cathepsin L activity of analogs with modified C2 carbonyl reactivity” value (human liver cathepsin L; ref xxxviii) is given as “as potent as the thiocarbazate”. The “concentration preventing entry of Ebola virus into cells” value (Ebola virus) was “sub-micromolar”, the “concentration preventing entry of SARS-CoV into cells” value (SARS-CoV) was “sub-micromolar” and the “selectivity compared to cathepsin B” value (cathepsin B; ref xxx) was greater than 700 fold. The “toxicity in zebrafish whole organism assay” value (zebrafish; no toxicity detected up to this concentration, ref xxx) was greater than 100 µM.
For `COc1ccc(S(=O)(=O)n2nc(OC(=O)c3ccccc3)cc2N)cc1` [CID 655490], the “mode of inhibition of NS2B-NS3 Proteinase” value [1] is given as “slow-binding, reversible, non-competitive inhibitor”.
For `CCc1ccccc1NC(=O)CSC(=O)NNC(=O)[C@H](Cc1c[nH]c2ccccc12)NC(=O)OC(C)(C)C` [Compound 15a], the IC50 (Leishmania major) is listed as 12500 nM, the IC50 (Plasmodium falciparum) is listed as 15400 nM and the “Toxicity (bovine aortic endothelial cells)” value [2] is listed as 16 µM. The “products of hydrolysis (20 and 21) detected by LC/MS” value (cathepsin L) was “No products were detected”, the IC50 (human liver cathepsin L; cathepsin L, no preincubation stated, ref xl) was 56 nM and the Ki (human liver cathepsin L; cathepsin L, ref xl) was 0.89 nM. The koff (human liver cathepsin L; cathepsin L, ref xl) was 2.2e-05 s⁻¹, the IC50 (human liver cathepsin L; read-out: Cathepsin L inhibition IC50, analogs of 15a, ref xlii) was 56 nM and the IC50 (human liver cathepsin L; read-out: IC50(4h preincubation), cathepsin L, 4h preincubation, ref xl) was 1 nM. For the same compound, the “kinetic characterization of inhibition” value (human liver cathepsin L; ref xl) was “slowly reversible inhibition”, the “Selectivity vs cathepsin B” value (cathepsin B; ref xl) was 45-fold and the “Toxicity (zebrafish)” value (zebrafish; ref xl) was greater than 100 µM. For the same compound, the “products detected in the presence of cysteine” value [3] was “no detectable products”.
